Key:
[1] = Tail-flick antinociception and tolerance, intracerebroventricular (i.c.v.) cannula; format: in vivo, rat
Source text: Intracerebroventricular (i.c.v.) cannula implantation. Rats were anesthetized with halothane and placed in a stereotaxic head holder. The scalp was shaved and scrubbed with alcohol. A midline sagittal incision was made, and the skull was exposed. The bone suture junctions Bregma and midline (lambda) were identified, then the location for cannula placement was marked 1 mm posterior to Bregma and 1.5 mm lateral (left) of the midline. A hole was drilled through the skull at the marked location to receive the cannula. Then, three additional holes were drilled around the first hole: anterior, lateral and posterior to the first hole, respectively, and about 3-4 mm apart from the first hole. These three holes were drilled partway through the skull to accommodate three small screws used to secure the cannula. An L-shaped cannula was inserted through the first hole in the skull to the stereotaxically correct depth 3.6 mm below the surface of the skull. The skull surface was completely dried, and the cannula and the implantation site covered with dental cement. Once the surgical procedures were done, the rat was removed from the stereotaxic device and returned to its cage and allowed 5 to 7 days to recover from surgery.
Implantation of osmotic mini-pump. After 5 to 7 days of recovery, a subcutaneous pocket in the midscapular area of the back of each rat, next to the implanted cannula (caudally), was created under light anesthesia with halothane to house the osmotic mini-pump. The subcutaneous pocket was created by first making a small incision, inserting a hemostat into the incision, and then opening and closing the hemostat to make a short subcutaneous tunnel. […] The wound was closed with sutures and the rat was returned to its cage.
Rats were tested for analgesia using the tail-flick latency test twice during the study period. The tests were conducted 30 min after the morning dose on days 1 and 5. Maximum Possible Effect (MPE) was calculated using the following equation: (Post-drug latency—baseline latency)/(cut-off latency—baseline latency)×100%.

[2] = Naloxone-precipitated withdrawal after i.c.v. treatment (jumping, shaking, chewing, weight loss); conditions: naloxone 3 mg/kg i.p.; for withdrawal behaviours after naloxone: 20-min period; for withdrawal symptoms after naloxone (jumping, shaking, chewing, weight loss): i.c.v. twice daily for 5 days, morphine 50 nmoles, DAMGO 1.0 nmole
Method: (§1) On day 7, rats were injected intraperitoneally with 3 mg/kg naloxone and placed, individually, in Plexiglass cylinders. The rats were monitored for jumping, shaking, and chewing, and the number of occurrences of each type of behavior over a 20-min period was recorded immediately following the naloxone injection. In addition, the rats were weighed before naloxone injection and after the 20 mins of monitoring indicated above.
as §1, with “5, 30 mins following the second drug administration,” for “7,”, “following” for “after”, “20-min observation period” for “20 mins of monitoring”

[3] = Radiant heat tail-flick antinociception, intrathecal (IT) catheter; format: in vivo, rat
Source text: Animals. Male Sprague-Dawley rats (250-300 g, Simonsen Laboratories, Inc. Gilroy, Calif.) were housed individually in temperature-controlled rooms with a 12-hr light/dark cycle. Food and water were available ad libitum. All procedures used in this study were in agreement with the NIH Guide for the Care and Use of Laboratory Animals and were approved by the Animal Care and Use Committee at Gallo Center of the University of California, San Francisco.
Preparation and implantation of intrathecal (IT) catheters. […] Two types of catheters were prepared depending on the regimen for test drug delivery. […] For catheter implantation, rats were anesthetized with isoflurane and placed on a stereotaxic device with the head flexed forward. The PE-10 catheter was inserted into the spinal subarachnoid space through an incision in the atlanto-occipital membrane and advanced caudally extending to the lumbar enlargement of the spinal cord. After implantation of IT catheters, rats were returned to their home cages and allowed 7 days to recover from surgery.
Drug treatments. […] The test drug was delivered via either single injection or chronic infusion. […] DAMGO or saline was injected through one arm of the Y-shape catheter at 15 μl volume.
Antinociception test. Rats were tested for antinociception using the radiant heat tail-flick procedure. The light intensity was adjusted to achieve base-line latencies of 1.5 to 2 seconds; a maximum latency of 6 seconds was set as the cut-off time to minimize damage to the tail. […] Antinociception was tested by tail-flick 30 min after the afternoon administration. The behavioral data of antinociception were compared and statistically analyzed by two-way analysis of variance followed by Bonferroni post-test, where P<0.05 was considered significant.
(§2) Rats (4-6 per group) were implanted with an intrathecal catheter through which either an acute injection of agonist could be given or chronic drug could be administered by an osmotic mini pump.
Rats were implanted with a Y-shaped intrathecal catheter. […] Either a sub-analgesic, sub-endocytic dose of DAMGO (0.01 nmoles in 15 μl) or an equal volume of saline was administered twice daily through the other arm of the catheter. […] Analgesia was measured by tail flick latency test once per day 30 minutes following the second injection.

[4] = molecular target: T1, FLAG-MOR (mu opioid receptor) (Mus musculus, UniProt P42866); experiment: MOR endocytosis by antibody feeding and immunocytochemistry in HEK 293 cells; format: cell-based
T1 construct: expressed in transfected cells
Method: (§3) Cell culture and immunocytochemistry. Human Embryonic Kidney (HEK) 293 cells (American Type Culture Collection) were grown in DMEM (Gibco BRL) supplemented with 10% Fetal Bovine Serum (Hyclone). Mu opioid receptor and CRE-Luciferase (Promega) constructs were stably transfected using calcium phosphate co-precipitation, with single colonies chosen and propagated in the presence of selection-containing media. For immunocytochemistry, cells were grown on poly-lysine coated coverslips and incubated with 3.5 μg/ml M1 anti-FLAG and/or 3.5 μg/ml HA-11 antibody (Covance) for 30 minutes. Cells were then treated with agonist as specified, fixed in 4% formaldehyde in PBS, permeabilized in 0.1% Triton X-100 in blotto, and stained. Cells stained for only one receptor type were stained with Texas red-conjugated Donkey anti-Mouse antibody (Jackson Immunoresearch). Cells that were stained for both FLAG and HA tagged receptors simultaneously were first incubated with rabbit anti-IgG2b antibodies (Zymed) followed by staining with Texas red Donkey anti Mouse antibody (Jackson Immunoresearch) and FITC-conjugated Goat anti Mouse IgG1, antibody (Boehringer). Images were acquired using a custom-configured inverted microscope (Prairie Systems, Madison, Wis.) with a Zeiss 63× oil objective, or a Zeiss confocal with a 60× oil objective.
We next assessed whether the heterodimerization of MOR and D MOR could affect the trafficking of the receptors using immunocytochemical methods. […] Control cell lines that expressed only one of the receptors, either FLAG-MOR or HA-D MOR, were treated analogously. All cells were then permeabilized and stained with fluorescently conjugated secondary antibodies. In this way, only receptors that were initially on the cell surface were detected.
HEK 293 cells were generated that stably expressed both the FLAG-tagged MOR and an HA-tagged B2AR. The cells were incubated with antibodies to both epitope tags to label cell surface receptors, treated with various agonists or agonists combinations, then stained for both receptors. […] All treatments were for 30 minutes with 5 μM each agonist.

[5] = molecular target: T2, MORs in the lamina II neurons of the spinal cord (Rattus norvegicus, UniProt P33535); experiment: Immunohistochemical staining of MORs in lamina II spinal cord neurons after IT drug; format: in vivo
T2 construct: from tissue; host or cells: spinal cord (lamina II, dorsal horn) of male Sprague-Dawley rats dosed intrathecally
Method: Immunohistochemistry. The rats were anesthetized with intramuscular ketamine hydrochloride (80 mg/kg) and xylazine hydrochloride (12 mg/kg) and perfused with 4% paraformaldehyde in 0.1 M phosphate buffer immediately following the tail-flick test at day 7 following pump implantation. The segment of spinal cord proximal to the tip of the catheter was dissected out, post-fixed overnight in the same fixative and then transferred to a 30% sucrose buffer solution. […] The sections were then washed and mounted on slides. MOR distribution was examined with a Zeiss confocal microscope using a 60× oil immersion objective. For quantification, slides from at least two different rats for each condition were stained by one researcher and encoded and vesicles were counted blind by a second individual from the middle section of at least 8 cells per condition. Following compilation of vesicle counts, the code was broken.
as §2
A very low dose of DAMGO was chosen to avoid confusion due to DAMGO-induced endocytosis.
To examine this possibility, we examined the distribution of the MORs in the spinal cord of the rats from the behavioral experiment.

cAMP pathway = experiment: CRE-luciferase reporter assay of cAMP superactivation in MOR-expressing HEK293 cells; conditions: chronic 14 hours
Method: CRE-luciferase reporter expression assays. Cells were grown to confluency in 24 well plates. […] For chronic treatment experiments cells were given drug for 14 hours, rinsed 3 times in drug-free media to initiate a withdrawal phase, then given 2 μM forskolin for the 4 hour withdrawal phase, and luciferase activity measured. […] For all treatment conditions, cells were rinsed once in PBS immediately prior to luciferase measurement. 100 μl Cell Culture Lysis Reagent (Promega) was added to each well, a 20 μl cell lysate aliquot was transferred to an opaque 96 well plate, 100 μl substrate added per well using a Lucy 2 luminometer (Anthos), and light measurements collected. Data were exported to Microsoft Excel for compilation, and GraphPad Prism 3.0 for graphical display, non-linear regression curve fitting, and subsequent statistical analyses.
P<0.01, two-way ANOVA, Tukey's post test.

[6] = molecular target: T3, HA-B2AR (beta-2 adrenergic receptor) (Homo sapiens, UniProt P07550); experiment: B2AR endocytosis in HEK 293 cells expressing FLAG-MOR and HA-B2AR; format: cell-based; conditions: 5 μM each agonist, 30 minutes
T3 construct: expressed in transfected cells
Method: as §3, with “objective. […]” for “objective.”

wild type MOR = wild type MOR (Homo sapiens, UniProt P35372); conditions: cited from earlier work
mu-opioid receptor = molecular target: T4, mu-opioid receptor (Rattus norvegicus, UniProt P33535); experiment: MOR distribution in brain by immunohistochemistry after acute and chronic i.c.v. treatment; format: in vivo; conditions: i.c.v. acute or chronic (twice a day, 5 days); morphine 50 nmoles, DAMGO 1 nmole
T4 construct: from tissue; host or cells: brain sections of male Sprague-Dawley rats treated i.c.v
Method: For the acute treatment, animals were sacrificed 30 mins following the first injection. For the chronic treatment, drugs were given twice a day: morning and afternoon, in 5 μl volume for 5 days, and the animals were sacrificed 30 mins following the final injection. Rats were deeply anesthetized with halothane and perfused with 4% paraformaldehyde in 0.1 M phosphate buffer. The brains were dissected out and post-fixed overnight in the same fixative and then transferred to a 30% sucrose buffer. Coronal sections (30 um thick) were cut on cryostat at −18° C., preincubated in PBT solution (0.1 M phosphate buffer, 2% BSA, and 0.2% Triton X-100) for 30 min, blocked in 5% normal goat serum in PBT solution for another 30 min, and then incubated with a rabbit anti-mu opioid receptor antibody at 1:5000 and mouse and NeuN antibody (which recognizes the neuronal-specific protein NeuN) at 1:5000 overnight at 4° C. […] The sections were then washed and mounted onto slides. The mu-opioid receptors and NeuN were visualized using a Zeiss confocal microscope with a 60× oil immersion objective.

MOR-G protein coupling = molecular target: T5, MOR-G protein coupling (Rattus norvegicus, UniProt P33535); experiment: [35S]-GTPγS binding autoradiography of brain sections (MOR-G protein coupling) after chronic treatment; format: in vivo; conditions: chronic DAMGO treatment as printed; brainstem P<0.001, thalamus P<0.05
T5 construct: from tissue; host or cells: brain sections of male Sprague-Dawley rats treated i.c.v
Method: The binding assay was carried out as follows:
Slides containing brain sections were pre-incubated in buffer (50 mM Tris, 3 mM MgCl2, 0.2 mM EGTA, 100 mM NaCl, pH 7.4) for 10 min at room temperature.
The slides were then pre-incubated in the same buffer containing 2 mM GDP for 10 min at room temperature.
The slides were incubated in the same buffer as in step 2, additionally containing 50 pM [^35S]GTPγS for 90 min at room temperature.
The slides were then rinsed twice for 2-5 min in ice-cold buffer (the same buffer as in step 1) and dipped in cold distilled water.
The slides were thoroughly dried overnight, placed in X-ray cassettes, and exposed to BioMax MS™ film with an intensifying screen for 72 hr.
After exposure, the films were developed and scanned. The regional neuroanatomy of the rat was determined with the atlas of Paxinos and Watson, and brain areas in autoradiograms were quantitated using NIH Image software. Percent stimulation was calculated from optical densities (OD) according to the following equation:
Percent stimulation=(stimulated OD−basal OD)/basal OD×100%.

[7] = chronic i.c.v. infusion at 25 or 75 nmoles/hr for 7 days
[8] = acute IT injection, 30 min after, DAMGO 0.3 nmoles, morphine 30 nmoles, p<0.001
[9] = HEK 293 cells expressing FLAG-MOR and HA-B2AR, 5 μM each agonist, 30 minutes

T2 sequence (P33535 whole entry): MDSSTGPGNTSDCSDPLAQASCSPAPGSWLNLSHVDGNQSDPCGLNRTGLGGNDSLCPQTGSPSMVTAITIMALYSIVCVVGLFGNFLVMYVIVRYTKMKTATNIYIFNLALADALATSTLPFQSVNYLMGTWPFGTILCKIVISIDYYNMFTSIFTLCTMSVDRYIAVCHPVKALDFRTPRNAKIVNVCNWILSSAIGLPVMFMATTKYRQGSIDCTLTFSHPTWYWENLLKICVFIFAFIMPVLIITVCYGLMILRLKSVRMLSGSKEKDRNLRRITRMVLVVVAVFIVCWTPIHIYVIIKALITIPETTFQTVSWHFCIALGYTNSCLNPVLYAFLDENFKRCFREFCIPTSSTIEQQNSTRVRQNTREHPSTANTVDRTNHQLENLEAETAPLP
T1 sequence (P42866 whole entry): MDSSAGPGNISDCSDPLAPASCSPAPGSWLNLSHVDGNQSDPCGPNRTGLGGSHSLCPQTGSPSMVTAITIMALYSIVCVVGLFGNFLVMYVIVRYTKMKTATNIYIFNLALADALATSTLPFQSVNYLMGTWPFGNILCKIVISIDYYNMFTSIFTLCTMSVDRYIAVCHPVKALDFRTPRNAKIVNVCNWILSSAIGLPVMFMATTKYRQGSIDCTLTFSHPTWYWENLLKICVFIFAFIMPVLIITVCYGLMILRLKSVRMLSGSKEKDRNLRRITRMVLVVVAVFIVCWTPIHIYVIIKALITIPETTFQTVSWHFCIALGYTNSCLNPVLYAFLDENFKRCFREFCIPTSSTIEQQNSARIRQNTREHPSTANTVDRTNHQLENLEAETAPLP
Chain of wild type MOR (P35372 whole entry): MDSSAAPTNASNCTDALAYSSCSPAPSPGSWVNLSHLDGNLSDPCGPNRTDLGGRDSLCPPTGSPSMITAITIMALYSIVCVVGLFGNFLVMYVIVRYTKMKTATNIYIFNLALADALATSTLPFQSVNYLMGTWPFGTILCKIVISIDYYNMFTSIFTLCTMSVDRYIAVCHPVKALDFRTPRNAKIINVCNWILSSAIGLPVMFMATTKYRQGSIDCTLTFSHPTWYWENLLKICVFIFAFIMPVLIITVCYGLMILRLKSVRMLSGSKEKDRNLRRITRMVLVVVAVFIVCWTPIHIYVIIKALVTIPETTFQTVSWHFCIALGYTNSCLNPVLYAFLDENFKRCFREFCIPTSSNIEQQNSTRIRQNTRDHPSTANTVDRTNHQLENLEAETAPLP
T4 sequence (P33535 whole entry): as the sequence (P33535 whole entry) above
T5 sequence (P33535 whole entry): as above
T3 sequence (P07550 whole entry, species assumed): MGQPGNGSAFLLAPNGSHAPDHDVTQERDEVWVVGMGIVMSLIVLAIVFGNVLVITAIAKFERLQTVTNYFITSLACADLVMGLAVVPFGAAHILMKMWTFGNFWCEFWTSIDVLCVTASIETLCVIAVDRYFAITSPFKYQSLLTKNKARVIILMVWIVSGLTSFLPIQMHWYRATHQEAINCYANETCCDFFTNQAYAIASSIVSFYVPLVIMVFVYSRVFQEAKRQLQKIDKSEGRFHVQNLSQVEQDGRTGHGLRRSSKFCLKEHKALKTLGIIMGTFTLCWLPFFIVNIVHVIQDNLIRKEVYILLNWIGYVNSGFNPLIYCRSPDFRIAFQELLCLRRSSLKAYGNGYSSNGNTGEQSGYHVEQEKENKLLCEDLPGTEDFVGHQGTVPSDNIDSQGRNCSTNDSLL

CN1CC[C@]23c4c5ccc(O)c4O[C@H]2[C@@H](O)C=C[C@H]3[C@H]1C5 [morphine, (5α,6α)-7,8-didehydro-4,5-epoxy-17-methylmorphinan-3,6-diol]
duration of significant antinociceptive effect [1, 7]: 3 to 4 days | tolerance [1, 7]: causes tolerance in a dose-dependent manner | reduction in antinociceptive effect (percent MPE) after 5-day treatment ([1]; i.c.v. 50 nmoles twice a day for 5 days, day 5 vs day 1): 30-40% | withdrawal behaviours after naloxone ([2]; i.c.v. 25 nmoles/hr for 7 days): increases in shaking and chewing | withdrawal behaviours after naloxone ([2]; i.c.v. 75 nmoles/hr for 7 days): increases in jumping, shaking, and chewing | weight loss after naloxone ([2]; i.c.v. 25 or 75 nmoles/hr for 7 days): dose-dependent weight loss | withdrawal symptoms after naloxone (jumping, shaking, chewing, weight loss) [2]: produced jumping, shaking, and chewing and weight loss | time to development of tolerance ([3]; Y-shaped IT catheter, chronic morphine mini pump plus twice daily saline injections): ≤ 4 days | antinociception early in the experiment / day one ([3]; Y-shaped IT catheter, chronic morphine mini pump plus twice daily saline or DAMGO 0.01 nmoles): pronounced antinociception early in the experiment | analgesia (tail flick latency) [3, 8]: produced significant analgesia | loss of antinociception (tolerance) ([3]; chronic IT infusion at 2, 6, or 18 nmoles/hr, 7 days): eventually lost completely over 7 days | antinociceptive effect (tail flick latency) ([3]; chronic IT infusion at 2, 6, or 18 nmoles/hr, early days): significant antinociceptive effect for the first few days

CC(C)NCC(O)c1ccc(O)c(O)c1 (stereo not drawn) [isoproterenol]
MOR endocytosis [4, 9]: not MOR

C[C@@H](NC(=O)[C@@H](N)Cc1ccc(O)cc1)C(=O)NCC(=O)N(C)[C@@H](Cc1ccccc1)C(=O)NCCO [DAMGO]
MOR endocytosis in lamina II neurons ([5]; acute IT, 0.01 nmoles alone): nor detectable MOR endocytosis | MOR distribution / endocytosis in lamina II neurons ([5]; acute IT, DAMGO 0.3 nmoles, equi-analgesic morphine 30 nmoles): pronounced receptor endocytosis | distribution of MORs in spinal cord neurons ([5]; day 7 of chronic IT treatment, morphine mini pump and/or DAMGO 0.01 nmoles twice daily): indistinguishable from animals given only saline | superactivation of the cAMP pathway relative to untreated cells (cAMP pathway; 10 nM alone): little superactivation | superactivation of the cAMP pathway relative to untreated cells (cAMP pathway; 1 μM, 100 nM, 10 nM or 1 nM): superactivation in a dose dependent manner | MOR endocytosis [4, 9]: promoted endocytosis of the MOR | MOR endocytosis ([4]; HEK 293 cells expressing only MOR, 5 μM, 30 minutes (saturating dose)): robust endocytosis of receptor | MOR endocytosis ([4]; HEK 293 cells expressing only MOR, non-saturating DAMGO 100 nM alone): significantly less receptor endocytosis | B2AR endocytosis [6]: not B2AR | reduction in antinociception (percent MPE) after 5-day treatment ([1]; i.c.v. 1 nmole twice a day for 5 days, day 5 vs day 1): much smaller reduction in antinociception | MOR endocytosis (wild type MOR): promotes robust endocytosis of the MOR | promotes substantial MOR endocytosis in brain (striatum, globus pallidus, ventral tegumental area) (mu-opioid receptor): does | MOR-G protein coupling in the brainstem and thalamus (MOR-G protein coupling): reduction MOR-G protein coupling | withdrawal symptoms after naloxone (jumping, shaking, chewing, weight loss) [2]: no jumping and less shaking, chewing, and weight loss | analgesia (tail flick latency) ([3]; 0.01 nmoles IT twice daily, saline from mini pump, 7 days): produced no analgesia | analgesia (tail flick latency) ([3]; acute IT injection, 30 min after, 0.01 nmoles, p>0.05): no analgesic effect | analgesia (tail flick latency) [3, 8]: produced significant analgesia
